IC50 data for one compound are collected here from BindingDB's records for doi:10.1016/S0960-894X(98)00544-7 (University of Ferrara, 1999).

The structures appear in SMILES notation.

The experiment can be described thus: Inhibition of Ha-ras polymerase-chain reaction product.

In general, IC50 refers to the concentration that gives 50% inhibition. Read a high IC50 as weaker potency. Consider `COC(=O)CCOc1cc2c(cc1OC)C(=O)N1CCC[C@H]1C=N2` [3-((S)-7-Methoxy-5-oxo-2,3,5,11a-tetrahydro-1H-benzo[e]pyrrolo[1,2-a][1,4]diazepin-8-yloxy)-propionic acid methyl ester], for which the half-maximal inhibitory concentration (IC50) was > 300 µM.
